Converted amounts (≈) assume the structure as drawn.
How the values were obtained:
Assay type in all cases: functional
Staphylococcus aureus [1] = assay: In vitro antibacterial activity against Staphylococcus aureus 853E beta-lactamase producing strain and compared to imipenem,
Clostridium perfringens = assay: In vitro antibacterial activity against Clostridium perfringens 615E strain and compared to imipenem
Enterococcus faecalis = assay: In vitro antibacterial activity against […] 850 strain and compared to imipenem
Escherichia coli [2] = assay: In vitro antibacterial activity against Escherichia coli 1850E strain and compared to imipenem
Staphylococcus aureus [3] = assay: In vitro antibacterial activity against Staphylococcus aureus 663E strain and compared to imipenem
Escherichia coli [4] = assay: In vitro antibacterial activity against Escherichia coli 1919E beta-lactamase producing strain and compared to imipenem
Pseudomonas aeruginosa = assay: In vitro antibacterial activity against Pseudomonas aeruginosa 1911E strain and compared to imipenem

C[C@@H](O)[C@H]1C(=O)N2C(C(=O)[O-])=C3[C@@H](OCCCO)CCC[C@@H]3[C@H]12.[Na+]
MIC (Staphylococcus aureus [1]): 0.5 µg/mL
MIC (Clostridium perfringens): 30 µg/mL
MIC (Enterococcus faecalis): 8 µg/mL
MIC (Escherichia coli [2]): 2 µg/mL
MIC (Staphylococcus aureus [3]): 0.2 µg/mL
MIC (Escherichia coli [4]): 1 µg/mL
MIC (Pseudomonas aeruginosa): > 32 µg/mL

C[C@@H](O)[C@H]1C(=O)N2C(C(=O)[O-])=C3[C@@H](OCCCN)CCC[C@@H]3[C@H]12.[Na+]
MIC (Staphylococcus aureus [1]): 0.2 µg/mL
MIC (Clostridium perfringens): 60 µg/mL
MIC (Enterococcus faecalis): 4 µg/mL
MIC (Escherichia coli [2]): 0.5 µg/mL
MIC (Staphylococcus aureus [3]): 0.2 µg/mL
MIC (Escherichia coli [4]): 0.5 µg/mL
MIC (Pseudomonas aeruginosa): 16 µg/mL

C[C@@H](O)[C@H]1C(=O)N2C(C(=O)[O-])=C3[C@@H](OCCN=[N+]=[N-])CCC[C@@H]3[C@H]12.[Na+]
MIC (Staphylococcus aureus [1]): 0.5 µg/mL
MIC (Clostridium perfringens): 30 µg/mL
MIC (Enterococcus faecalis): 4 µg/mL
MIC (Escherichia coli [2]): 8 µg/mL
MIC (Staphylococcus aureus [3]): 0.25 µg/mL
MIC (Escherichia coli [4]): 1 µg/mL
MIC (Pseudomonas aeruginosa): > 32 µg/mL

C[C@@H](O)[C@H]1C(=O)N2C(C(=O)[O-])=C3[C@@H](OCC/N=C/N)CCC[C@@H]3[C@H]12.[Na+]
MIC (Staphylococcus aureus [1]): 0.5 µg/mL
MIC (Clostridium perfringens): 120 µg/mL
MIC (Enterococcus faecalis): 2 µg/mL
MIC (Escherichia coli [2]): 1 µg/mL
MIC (Staphylococcus aureus [3]): 0.25 µg/mL
MIC (Escherichia coli [4]): 1 µg/mL
MIC (Pseudomonas aeruginosa): 32 µg/mL

C[C@@H](O)[C@H]1C(=O)N2C(C(=O)[O-])=C3[C@@H](OCCCN=[N+]=[N-])CCC[C@@H]3[C@H]12.[Na+]
MIC (Staphylococcus aureus [1]): 0.5 µg/mL
MIC (Clostridium perfringens): 60 µg/mL
MIC (Enterococcus faecalis): 8 µg/mL
MIC (Escherichia coli [2]): 8 µg/mL
MIC (Staphylococcus aureus [3]): 0.2 µg/mL
MIC (Escherichia coli [4]): 1 µg/mL
MIC (Pseudomonas aeruginosa): > 32 µg/mL

C/C(N)=N\CCO[C@H]1CCC[C@H]2C1=C(C(=O)[O-])N1C(=O)[C@H]([C@@H](C)O)[C@@H]21.[Na+]
MIC (Staphylococcus aureus [1]): 2 µg/mL
MIC (Clostridium perfringens): 120 µg/mL
MIC (Enterococcus faecalis): 16 µg/mL
MIC (Escherichia coli [2]): 1 µg/mL
MIC (Staphylococcus aureus [3]): 1 µg/mL
MIC (Escherichia coli [4]): 0.5 µg/mL
MIC (Pseudomonas aeruginosa): 32 µg/mL

C[C@@H](O)[C@H]1C(=O)N2C(C(=O)[O-])=C3[C@@H](OCCN)CCC[C@@H]3[C@H]12.[Na+]
MIC (Staphylococcus aureus [1]): 0.5 µg/mL
MIC (Clostridium perfringens): 120 µg/mL
MIC (Enterococcus faecalis): 8 µg/mL
MIC (Escherichia coli [2]): 0.5 µg/mL
MIC (Staphylococcus aureus [3]): 0.5 µg/mL
MIC (Escherichia coli [4]): 0.5 µg/mL
MIC (Pseudomonas aeruginosa): 8 µg/mL

C[C@@H](O)[C@H]1C(=O)N2C(C(=O)O)=C(SCCNC=N)C[C@H]12 [IMIPENEM ANHYDROUS]
MIC (Staphylococcus aureus [1]): 0.12 µg/mL (≈ 0.401 µM)
MIC (Clostridium perfringens): 30 µg/mL (≈ 100 µM)
MIC (Enterococcus faecalis): 2 µg/mL (≈ 6.68 µM)
MIC (Escherichia coli [2]): 0.5 µg/mL (≈ 1.67 µM)
MIC (Staphylococcus aureus [3]): 0.12 µg/mL (≈ 0.401 µM)
MIC (Escherichia coli [4]): 0.5 µg/mL (≈ 1.67 µM)
MIC (Pseudomonas aeruginosa): 4 µg/mL (≈ 13.4 µM)

Reference: ChEMBL document CHEMBL1129149, “Synthesis and biological evaluation of 4-alkoxysubstituted trinems. Part II” (1996)
